The values that follow come from patent US20080207614A1, “QUINAZOLINE DERIVATIVES FOR THE TREATMENT AND PREVENTION OF DIABETES AND OBESITY” (SK CHEMICALS CO., LTD., priority 2004, published 2008).

The test relates to C2C12 muscle cells. In words: Analysis of glucose absorption (2-deoxyglucose) in differentiated C2C12 muscle cells. The test is classed as cell-based. The settings on record: test materials 10 μM, times relative to control group. As to the method:
C2C12 muscle cells were cultured in DMEM (Dulbecco's modified Eagle's medium) containing 10% bovine calf serum. When the cell density increased to about 85 to 90%, the culture medium was replaced with 1% bovine calf serum and cell differentiation was induced for 6 days. Completely differentiated cells were cultured for 3 hours with Krebs-Ringer buffer (KRB) containing 5 mM glucose. The test materials were added at a concentration of 10 μM. 30 minutes later, 0.2 μCi 2-deoxyglucose was added. KRB was removed 20 minutes later and the cells were washed for 3 times with cold PBS. The cells were lysed with 0.5N NaOH and counted using a radioactive counter.
Turning to `Fc1cccc(CNc2nc(-c3cccnc3)nc3ccccc23)c1` [Compound 243, (3-Fluorobenzyl)-(2-pyridino-3-ylquinazolino-4-yl)-amine], the Glucose absorption is reported as 1.4. Regarding `COc1cc(CNc2nc(Cc3ccccc3)nc3ccccc23)cc(OC)c1OC` [Compound 332, (2-Benzylquinazolino-4-yl)-(3,4,5-trimethoxybenzyl)-amine], the Glucose absorption came to 1.1. As to `COc1cccc(CNc2nc(-c3ccncc3)nc3ccccc23)c1` [Compound 248, (3-Methoxybenzyl)-(2-pyridino-4-ylquinazolino-4-yl)-amine], the Glucose absorption came to 1.4. In turn, `COc1ccc(CNc2nc(C(C)(C)C)nc3ccccc23)cc1` [Compound 189, (2-tert-Butylquinazolino-4-yl)-(4-methoxybenzyl)-amine] had a Glucose absorption of 1.3. `c1ccc(CCNc2nc(Cc3ccccc3)nc3ccccc23)cc1` [Compound 215, (2-Benzylquinazolino-4-yl)-phenethylamine]: the Glucose absorption is recorded as 2.2.

As to `Clc1ccc(-c2nc(NCc3ccccc3)c3ccccc3n2)cc1` [Compound 259, Benzyl-[2-(4-chlorophenyl)-quinazolino-4-yl]-amine], the Glucose absorption is 1.4.

Turning to `COc1ccc(CNc2nc(-c3ccncc3)nc3ccccc23)cc1` [Compound 249, (4-Methoxybenzyl)-(2-pyridino-4-ylquinazolino-4-yl)-amine], the Glucose absorption worked out at 0.9.

For `Cc1ccc(Nc2nc(-c3ccccc3)nc3ccccc23)c(C)c1` [Compound 73, (2,4-Dimethyl-phenyl)-(2-phenylquinazolino-4-yl)-amine], the Glucose absorption worked out at 1.0. `c1cncc(-c2nc(NCc3ccc4c(c3)OCO4)c3ccccc3n2)c1` [Compound 242, Benzo[1,3]dioxol-5-ylmethyl-(2-pyridino-3-ylquinazolino-4-yl)-amine]: the Glucose absorption was 0.9. For the compound `CCSc1nc(NCCCc2ccccc2)c2ccccc2n1` [Compound 32, (2-Ethylsulfanylquinazoline-4-yl)-(3-phenylpropyl)-amine], the Glucose absorption is listed as 1.1.

On to `CCCCc1ccc(Nc2nc(-c3ccccc3)nc3ccccc23)cc1` [Compound 79, (4-Butyl-phenyl)-(2-phenylquinazolino-4-yl)-amine], for which the Glucose absorption was 1.1. As for `COc1ccc(CNc2nc(-c3cccnc3)nc3ccccc23)cc1` [Compound 237, (4-Methoxybenzyl)-(2-pyridino-3-ylquinazolino-4-yl)-amine], the Glucose absorption amounted to 0.9.

`c1ccc(CNc2nc(Cc3ccccc3)nc3ccccc23)cc1` [Compound 211, Benzyl-(2-benzylquinazolino-4-yl)-amine] had a Glucose absorption of 1.3. Compound `COc1ccc(OC)c(CCNc2nc(-c3ccccc3)nc3ccccc23)c1` [Compound 122, [2-(2,5-Dimethoxyphenyl)-ethyl]-(2-phenylquinazolino-4-yl)-amine] displayed a Glucose absorption of 1.3. As to `OCCOCCNc1nc(-c2cccnc2)nc2ccccc12` [Compound 245, 2-[2-(2-Pyridino-3-ylquinazolino-4-ylamino)-ethoxy]-ethanol], the Glucose absorption is 1.2.

In turn, `Fc1cccc(CCNc2nc(-c3ccc(Cl)cc3)nc3ccccc23)c1` [Compound 268, [2-(4-Chlorophenyl)-quinazolino-4-yl]-[2-(3-fluorophenyl)-ethyl]-amine] showed a Glucose absorption of 1.1. The compound `CC(C)(C)c1nc(NCCO)c2ccccc2n1` [Compound 198, 2-(2-tert-Butylquinazolino-4-ylamino)-ethanol] yielded a Glucose absorption of 1.4.

For the compound `OCCOCCNc1nc(-c2ccncc2)nc2ccccc12` [Compound 257, 2-[2-(2-Pyridino-4-ylquinazolino-4-ylamino)-ethoxy]-ethanol], the Glucose absorption was determined as 1.4. The compound `c1ccc(-c2nc(NCC3CCCCC3)c3ccccc3n2)cc1` [Compound 132, Cyclohexylmethyl-(2-phenylquinazolino-4-yl)-amine] displayed a Glucose absorption of 1.3. Turning to `COc1cccc(CCNc2nc(-c3ccccc3)nc3ccccc23)c1` [Compound 120, [2-(3-Methoxyphenyl)-ethyl]-(2-phenylquinazolino-4-yl)-amine], the Glucose absorption was 1.4. In the case of `CCSc1nc(NC2CCCC2)c2ccccc2n1` [Compound 28, Cyclopentyl-(2-ethylsulfanylquinazolino-4-yl)-amine], the Glucose absorption was found to be 1.1. As to `Fc1ccccc1CNc1nc(-c2ccccc2)nc2ccccc12` [Compound 94, (2-Fluorobenzyl)-(2-phenylquinazolino-4-yl)-amine], the Glucose absorption came out at 1.3. In turn, `Fc1cccc(CNc2nc(C3CCCCC3)nc3ccccc23)c1` [Compound 207, (2-Cyclohexylquinazolino-4-yl)-(3-fluorobenzyl)-amine] gave a Glucose absorption of 2.0. The value for `CC(C)(C)c1nc(NCc2ccc3c(c2)OCO3)c2ccccc2n1` [Compound 194, Benzo[1,3]dioxol-5-ylmethyl-(2-tert-butylquinazolino-4-yl)-amine] was 1.4; that for `c1ccc(-c2nc(NCCN3CCNCC3)c3ccccc3n2)cc1` [Compound 160, (2-Phenylquinazolino-4-yl)-(2-piperazino-1-ylethyl)-amine] was 2.5. Turning to `COc1cc(OC)c(CNc2nc(Cc3ccccc3)nc3ccccc23)c(OC)c1` [Compound 335, (2-Benzylquinazolino-4-yl)-(2,4,6-trimethoxybenzyl)-amine], the Glucose absorption worked out at 1.1. In turn, `CC(C)c1nc(NCCO)c2ccccc2n1` [Compound 186, 2-(2-Isopropylquinazolino-4-ylamino)-ethanol] yielded a Glucose absorption of 1.0. With `Fc1cccc(CCNc2nc(-c3cccnc3)nc3ccccc23)c1` [Compound 244, [2-(3-Fluorophenyl)-ethyl]-(2-pyridino-3-ylquinazolino-4-yl)-amine], the Glucose absorption was 0.4. Turning to `COc1cccc(CNc2nc(C(C)(C)C)nc3ccccc23)c1` [Compound 188, (2-tert-Butylquinazolino-4-yl)-(3-methoxybenzyl)-amine], the Glucose absorption was 1.0.

Turning to `COc1cccc(CNc2nc(-c3ccccn3)nc3ccccc23)c1` [Compound 224, (3-Methoxybenzyl)-(2-pyridino-2-ylquinazolino-4-yl)-amine], the Glucose absorption is listed as 1.1. For `Fc1cccc(CCNc2nc(C3CCCCC3)nc3ccccc23)c1` [Compound 208, (2-Cyclohexylquinazolino-4-yl)-[2-(3-fluorophenyl)-ethyl]-amine], the Glucose absorption amounted to 2.0. The value for `CCCNc1nc(SCC)nc2ccccc12` [Compound 31, (2-Ethylsulfanylquinazolino-4-yl)-propylamine] was 1.1; that for `Clc1ccc(Nc2nc(-c3ccccc3)nc3ccccc23)cc1` [Compound 162, (4-Chlorophenyl)-(2-phenylquinazolino-4-yl)-amine] was 1.3. Turning to `Fc1cccc(CNc2nc(-c3ccccn3)nc3ccccc23)c1` [Compound 231, (3-Fluorobenzyl)-(2-pyridino-2-ylquinazolino-4-yl)-amine], the Glucose absorption is listed as 1.2. As for `CCSc1nc(NCc2cc(OC)cc(OC)c2)c2ccccc2n1` [Compound 38, (3,5-Dimethoxybenzyl)-(2-ethylsulfanylquinazolino-4-yl)-amine], the figure is 1.5.
